The text below walks through data of US12139487B2, “Compounds and uses thereof” (Foghorn Therapeutics Inc., priority 2022, dated 2024).

The target in this assay is T1, BRG-1 (Homo sapiens, UniProt P51532).
T1 construct: made in house; host or cells: High Five insect cells
The assay can be described thus: ATPase catalytic activity assay (ADP-Glo), BRG-1. It counts as biochemical. Particulars: Table 10, read-out: BRG1 IC50. On the procedure:
The ATPase catalytic activity of BRM or BRG-1 was measured by an in vitro biochemical assay using ADP-Glo™ (Promega, V9102). The ADP-Glo™ kinase assay is performed in two steps once the reaction is complete. The first step is to deplete any unconsumed ATP in the reaction. The second step is to convert the reaction product ADP to ATP, which will be utilized by the luciferase to generate luminesce and be detected by a luminescence reader, such as Envision.
Then, following addition of 5 μL of ADP-Glo™ Reagent provided in the kit, the reaction incubates at room temperature for 40 minutes. Then, 10 μL of Kinase Detection Reagent provided in the kit is added to convert ADP to ATP, and the reaction incubates at room temperature for 60 minutes. Finally, luminescence measurement is collected with a plate-reading luminometer, such as Envision.
Background: ADP-Glo turns the ADP formed in a reaction into a luminescent signal.

pIC50: −log10 of the molar value.

T1 sequence (P51532 whole entry): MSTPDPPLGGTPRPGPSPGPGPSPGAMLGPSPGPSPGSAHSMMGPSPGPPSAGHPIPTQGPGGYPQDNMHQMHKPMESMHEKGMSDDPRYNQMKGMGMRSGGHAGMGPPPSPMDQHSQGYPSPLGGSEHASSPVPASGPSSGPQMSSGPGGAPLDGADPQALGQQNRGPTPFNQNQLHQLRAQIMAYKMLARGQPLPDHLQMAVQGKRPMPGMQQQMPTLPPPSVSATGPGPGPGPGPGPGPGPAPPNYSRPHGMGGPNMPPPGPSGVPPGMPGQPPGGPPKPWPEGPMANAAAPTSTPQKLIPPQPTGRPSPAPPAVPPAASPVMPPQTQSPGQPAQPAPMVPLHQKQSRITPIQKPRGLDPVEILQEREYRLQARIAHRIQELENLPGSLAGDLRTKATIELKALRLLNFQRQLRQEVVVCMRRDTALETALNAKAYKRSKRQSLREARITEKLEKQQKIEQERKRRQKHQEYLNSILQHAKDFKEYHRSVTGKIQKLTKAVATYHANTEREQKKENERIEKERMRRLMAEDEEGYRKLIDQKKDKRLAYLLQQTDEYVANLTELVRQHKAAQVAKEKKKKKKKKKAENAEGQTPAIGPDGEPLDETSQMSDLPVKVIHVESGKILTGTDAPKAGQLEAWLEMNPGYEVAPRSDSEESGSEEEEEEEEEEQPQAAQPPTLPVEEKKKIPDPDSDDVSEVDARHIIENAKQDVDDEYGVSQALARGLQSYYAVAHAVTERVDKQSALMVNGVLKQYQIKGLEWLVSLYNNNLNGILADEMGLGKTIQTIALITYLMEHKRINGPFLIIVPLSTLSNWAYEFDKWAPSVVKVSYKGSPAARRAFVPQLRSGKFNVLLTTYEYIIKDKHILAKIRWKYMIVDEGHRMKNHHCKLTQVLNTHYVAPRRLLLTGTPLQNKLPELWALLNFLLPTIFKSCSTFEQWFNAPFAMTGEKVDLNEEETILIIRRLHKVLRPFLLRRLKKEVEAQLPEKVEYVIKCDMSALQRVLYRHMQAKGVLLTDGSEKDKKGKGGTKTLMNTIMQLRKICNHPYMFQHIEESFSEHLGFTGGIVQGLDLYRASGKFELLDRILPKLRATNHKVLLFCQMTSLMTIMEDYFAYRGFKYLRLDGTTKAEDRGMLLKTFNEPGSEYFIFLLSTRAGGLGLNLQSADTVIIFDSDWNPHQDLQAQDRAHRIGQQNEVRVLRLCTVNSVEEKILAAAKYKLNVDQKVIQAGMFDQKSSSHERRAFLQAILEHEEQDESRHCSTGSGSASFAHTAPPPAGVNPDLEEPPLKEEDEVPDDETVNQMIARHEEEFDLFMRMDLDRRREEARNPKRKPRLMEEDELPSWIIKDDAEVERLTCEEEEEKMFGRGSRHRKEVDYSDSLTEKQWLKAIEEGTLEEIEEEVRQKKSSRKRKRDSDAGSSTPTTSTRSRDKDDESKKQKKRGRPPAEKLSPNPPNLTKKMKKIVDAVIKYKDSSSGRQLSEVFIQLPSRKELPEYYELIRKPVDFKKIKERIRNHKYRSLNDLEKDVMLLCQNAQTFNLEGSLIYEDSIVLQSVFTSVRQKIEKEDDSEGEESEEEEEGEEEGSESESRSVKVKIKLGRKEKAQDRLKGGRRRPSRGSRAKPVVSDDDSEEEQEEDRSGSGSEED

For orientation: pIC50 means −log10 of the IC50, conventionally taken in molar units. `C[C@@H]1OC[C@H](F)S(=O)(=O)c2cc(C(=O)NCc3cc4nc(N5CCOc6cc(C7CC7)cnc65)ccc4cn3)ccc21` [Compound 49]: the negative logarithm of the IC50 (pIC50) is 7.36. For `COc1cc(C(=O)NCc2cc3nc(-c4ccc(OC(F)F)c(C5CC5)n4)ccc3cn2)cc2c1COC[C@H](F)S2(=O)=O` [Compound 329], the pIC50 was 5.87. `O=C(NCc1cc2nc(N3CCOc4ccc([C@@H]5C[C@@H]5F)nc43)ccc2cn1)c1cc(F)c2c(c1)S(=O)(=O)[C@@H](F)COC2` [Compound 209]: the pIC50 was 6.99. Take `C[C@H]1CCN1c1cnc2c(c1)OCCN2c1ccc2cnc(CNC(=O)c3cc(F)c4c(c3)S(=O)(=O)[C@@H](F)CCO4)cc2n1` [Compound 233]: the pIC50 was 7.12. The figure for `O=C(NCc1cc2nc(N3CCOc4cc(C5CC5)cnc43)ccc2cn1)c1cc(F)c2c(c1)S(=O)(=O)[C@@H](F)CCO2` [Compound 241] is 7.08; for `COc1nc(C(F)F)ccc1-c1ccc2cnc(CNC(=O)c3cc(C(F)F)c4c(c3)S(=O)(=O)[C@@H](F)COC4)cc2n1` [Compound 234] it is 7.08. Next, `COc1nc(C(F)(F)F)ccc1-c1ccc2cnc(CNC(=O)c3cc(F)c4c(c3)S(=O)(=O)[C@@H](F)COC4)cc2n1` [Compound 127]: 7.14; `O=C(NCc1cc2nc(-c3cccc([C@H]4CC4(F)F)n3)ccc2cn1)c1cc(F)c2c(c1)S(=O)(=O)[C@@H](F)COC2` [Compound 128]: 6.91. `O=C(NCc1cc2nc(N3CCOc4cc(N5C[C@@H](F)[C@H](F)C5)cnc43)ccc2cn1)c1cc(Cl)c2c(c1)S(=O)(=O)[C@@H](F)CCO2` [Compound 258, (R)-9-chloro-N-((2-(7-((3R,4R)-3,4-difluoropyrrolidin-1-yl)-2,3-dihydro-4H-pyrido[3,2-b][1,4]oxazin-4-yl)-1,6-naphthyridin-7-yl)methyl)-4-fluoro-3,4-dihydro-2H-benzo[b][1,4]oxathiepine-7-carboxamide 5,5-dioxide]: the pIC50 was 6.99. The figure for `[2H]C([2H])([2H])Oc1ccc(-c2ccc3cnc(CNC(=O)c4cc(F)c5c(c4)S(=O)(=O)[C@@H](F)CCO5)cc3n2)nc1C1CC1` [Compound 257] is 6.97; for `C[C@@H]1CCCN1c1cnc2c(c1)OCCN2c1ccc2cnc(CNC(=O)c3cc(F)c4c(c3)S(=O)(=O)[C@@H](F)CCO4)cc2n1` [Compound 243] it is 6.96; for `O=C(NCc1cc2nc(N3CCOc4ccc(N5CCC5)nc43)ccc2cn1)c1cc(F)c2c(c1)S(=O)(=O)[C@@H](F)CCO2` [Compound 264] it is 6.75.

As to `C#Cc1cc(C(=O)NCc2cc3nc(-c4cccc(N5C[C@@H](C)O[C@@H](C)C5)n4)ccc3cn2)cc2c1OCC[C@H](F)S2(=O)=O` [Compound 314], the pIC50 was 5.38. The figure for `O=C(NCc1cc2cc(-c3cccc(C(F)F)n3)ccc2cn1)c1cc(F)c2c(c1)S(=O)(=O)[C@@H](F)COC2` [Compound 232] is 6.85. Take `CCO[C@@H]1CCN(c2cccc(-c3ccc4cnc(CNC(=O)c5cc(F)c6c(c5)S(=O)(=O)[C@@H](F)CCO6)cc4n3)n2)C1` [Compound 92]: the pIC50 is 7.41.

For the compound `O=C(NCc1cc2nc(N3CCOc4ccc(C(F)F)nc43)ccc2cn1)c1cc(Cl)c2c(c1)S(=O)(=O)[C@@H](F)COC2` [Compound 208], the pIC50 is 6.62. The figure for `O=C(NCc1cc2nc(N3CCOc4c(N5CC6(CC6)C5)ccnc43)ccc2cn1)c1cc(F)c2c(c1)S(=O)(=O)[C@@H](F)COC2` [Compound 212] is 6.87; for `C[C@@H]1CCN1c1cc2c(cn1)N(c1ccc3cnc(CNC(=O)c4cc(F)c5c(c4)S(=O)(=O)[C@@H](F)COC5)cc3n1)CCO2` [Compound 214] it is 7.14; for `CCOc1cccc(-c2ccc3cnc(CNC(=O)c4cc(F)c5c(c4)S(=O)(=O)[C@@H](F)CCO5)cc3n2)n1` [Compound 330] it is 6.45. For `CN(C)c1cnc2c(c1)OCCN2c1ccc2cnc(CNC(=O)c3cc(F)c4c(c3)S(=O)(=O)[C@@H](F)CCO4)cc2n1` [Compound 106], the pIC50 was 7.45. The figure for `O=C(NCc1cc2nc(-c3cncc(N4CCCC4)n3)ccc2cn1)c1cc(F)c2c(c1)S(=O)(=O)[C@@H](F)CCO2` [Compound 220] is 6.83.

Turning to `O=C(NCc1cc2nc(N3CCOc4cc(N5CC(F)C5)cnc43)ccc2cn1)c1ccc2c(c1)S(=O)(=O)[C@@H](F)CCOC2` [Compound 7], the pIC50 was 7.75. Turning to `COCC1CN(c2ccc3c(c2)N(c2ccc4cnc(CNC(=O)c5cc(F)c6c(c5)S(=O)(=O)[C@@H](F)CCO6)cc4n2)CCO3)C1` [Compound 219], the pIC50 was 6.78. Next, `C[C@@H]1C[C@H](C)N1c1cnc2c(c1)OCCN2c1ccc2cnc(CNC(=O)c3cc(F)c4c(c3)S(=O)(=O)[C@@H](F)CCO4)cc2n1` [Compound 218]: 7.04. The figure for `C[C@@H]1CN(c2cccc(/C=C/c3ccnc(CNC(=O)c4cc(Cl)c5c(c4)S(=O)(=O)[C@@H](F)COC5)c3)n2)C[C@H](C)O1` [Compound 107] is 7.00. The figure for `CCOc1ccnc2c1OCCN2c1ccc2cnc(CNC(=O)c3cc(Cl)c4c(c3)S(=O)(=O)[C@@H](F)CCO4)cc2n1` [Compound 94] is 7.23.

`O=C(NCc1cc2nc(N3CCOc4ccc(OC(F)F)nc43)ccc2cn1)c1cc(F)c2c(c1)S(=O)(=O)[C@@H](F)CCO2` [Compound 126]: the pIC50 is 7.05. In the case of `COCCOc1ccc2c(c1)OCCN2c1ccc2cnc(CNC(=O)c3cc(F)c4c(c3)S(=O)(=O)[C@@H](F)CCO4)cc2n1` [Compound 93], the pIC50 was 7.37. Next, `CO[C@H]1C[C@@H]1N(C)c1cccc(-c2ccc3cnc(CNC(=O)c4cc(F)c5c(c4)S(=O)(=O)[C@@H](F)COC5)cc3n2)n1` [Compound 211]: 7.21.

Regarding `O=C(NCc1cc2nc(N3CCOc4cc(OCC(F)F)cnc43)ccc2cn1)c1cc(F)c2c(c1)S(=O)(=O)[C@@H](F)COC2` [Compound 213], the pIC50 is 7.04. Regarding `O=C(NCc1cc2cc(-c3cccc(C4CC4)n3)ccc2cn1)c1cc(F)c2c(c1)S(=O)(=O)[C@@H](F)CCO2` [Compound 291], the pIC50 was 6.69. `COc1nc([C@@H](C)F)ccc1-c1ccc2cnc(CNC(=O)c3cc(Cl)c4c(c3)S(=O)(=O)[C@@H](F)COC4)cc2n1` [Compound 242]: the pIC50 was 6.61. `Cc1cnc2c(c1)OCCN2c1ccc2cnc(CNC(=O)c3cc(F)c4c(c3)S(=O)(=O)[C@@H](F)COC4)cc2n1` [Compound 6, (R)-2,6-difluoro-N-((2-(7-methyl-2,3-dihydro-4H-pyrido[3,2-b][1,4]oxazin-4-yl)-1,6-naphthyridin-7-yl)methyl)-2,3-dihydro-5H-benzo[e][1,4]oxathiepine-8-carboxamide 1,1-dioxide]: the negative-log IC50 (pIC50) is 7.67.
